Data as given in ChEMBL document CHEMBL4342483, “Codrug Approach for the Potential Treatment of EML4-ALK Positive Lung Cancer” (ACS Med Chem Lett, 2020).
Activity calls are given as the source filed them. No cut-off for these calls is given here.

How the values were obtained:
[1] = Half life in phosphate buffer and DMSO supplemented with 4% bovine serum albumin at pH 6.5 by HPLC analysis; format: physicochemical; details: phosphate buffer and DMSO with 4% bovine serum albumin
[2] = Half life in phosphate buffer and DMSO supplemented with 4% bovine serum albumin at pH 7.4 by HPLC analysis; format: physicochemical; details: phosphate buffer and DMSO with 4% bovine serum albumin
[3] = Hydrolytic stability in phosphate buffer and DMSO supplemented with 4% bovine serum albumin assessed as rate constant at pH 7.4 by HPLC analysis
[4] = Hydrolytic stability in phosphate buffer and DMSO supplemented with 4% bovine serum albumin assessed as rate constant at pH 6.5 by HPLC analysis
[5] = Half life in rat plasma; format: ADME, cell-free
[6] = Drug degradation in rat plasma assessed as compound hydrolysis with first order rate constant; format: ADME, cell-free
[7] = tested on: A549; assay: Synergistic growth inhibition of ALK-negative human A549 cells assessed as combination index at compound:ceritinib concentration ratio of 1:1 and fractional effect of 0.25 in presence of ceritinib by Chou-Talalay method; format: functional
[8] = Cytotoxicity against EML4-ALK-positive human CCL185IG cells harboring wild type PI3KCA and CDKN2A and KRAS mutations assessed as cell growth inhibition measured after 72 hrs by MTT assay; format: functional
[9] = tested on: A549; assay: Cytotoxicity against ALK-negative human A549 cells harboring wild type PI3KCA and CDKN2A and KRAS mutations assessed as cell growth inhibition measured after 72 hrs by MTT assay; format: functional; details: A549, 72 h
[10] = tested on: A549; assay: Synergistic growth inhibition of ALK-negative human A549 cells assessed as combination index at compound:ceritinib concentration ratio of 1:1 and fractional effect of 0.5 in presence of ceritinib by Chou-Talalay method; format: functional
[11] = tested on: A549; assay: Synergistic growth inhibition of ALK-negative human A549 cells assessed as combination index at compound:ceritinib concentration ratio of 1:1 and fractional effect of 0.76 in presence of ceritinib by Chou-Talalay method; format: functional
[12] = tested on: A549; assay: Synergistic growth inhibition of ALK-negative human A549 cells assessed as combination index at compound:ceritinib concentration ratio of 1:1 and fractional effect of 0.96 in presence of ceritinib by Chou-Talalay method; format: functional
[13] = Synergistic growth inhibition of EML4-ALK-positive human CCL185IG cells assessed as combination index at compound:ceritinib concentration ratio of 1:1 and fractional effect of 0.25 in presence of ceritinib by Chou-Talalay method; format: functional
[14] = Synergistic growth inhibition of EML4-ALK-positive human CCL185IG cells assessed as combination index at compound:ceritinib concentration ratio of 1:1 and fractional effect of 0.5 in presence of ceritinib by Chou-Talalay method; format: functional
[15] = Synergistic growth inhibition of EML4-ALK-positive human CCL185IG cells assessed as combination index at compound:ceritinib concentration ratio of 1:1 and fractional effect of 0.76 in presence of ceritinib by Chou-Talalay method; format: functional
[16] = Synergistic growth inhibition of EML4-ALK-positive human CCL185IG cells assessed as combination index at compound:ceritinib concentration ratio of 1:1 and fractional effect of 0.96 in presence of ceritinib by Chou-Talalay method; format: functional
[17] = tested on: A549; assay: Cytotoxicity against ALK-negative human A549 cells assessed as cell growth inhibition by Chou-Talalay method; format: functional
[18] = Cytotoxicity against EML4-ALK-positive human CCL185IG cells assessed as cell growth inhibition by Chou-Talalay method; format: functional
[19] = Half life in phosphate buffer at pH 6.4 and d6-DMSO (1:1) by kinetic time-course NMR method; format: physicochemical; details: phosphate buffer and d6-DMSO (1:1)
[20] = Half life in phosphate buffer at pH 6.8 and d6-DMSO (1:1) by kinetic time-course NMR method; format: physicochemical; details: phosphate buffer and d6-DMSO (1:1)
[21] = Half life in phosphate buffer at pH 7.4 and d6-DMSO (1:1) by kinetic time-course NMR method; format: physicochemical; details: phosphate buffer and d6-DMSO (1:1)
[22] = Prodrug conversion in phosphate buffer at pH 6.4 and d6-DMSO (1:1) assessed as rate constant for release of active compound mimetics by kinetic time-course NMR method; format: ADME
[23] = Prodrug conversion in phosphate buffer at pH 6.8 and d6-DMSO (1:1) assessed as rate constant for release of active compound mimetics by kinetic time-course NMR method; format: ADME
[24] = Prodrug conversion in phosphate buffer at pH 7.4 and d6-DMSO (1:1) assessed as rate constant for release of active compound mimetics by kinetic time-course NMR method; format: ADME
[25] = Drug degradation in rat plasma assessed as compound hydrolysis with zero order rate constant; format: ADME, cell-free
[26] = target: ALK tyrosine kinase receptor (Homo sapiens) (UniProt Q9UM73); details: 500 nM
Description: Inhibition of ALK-mediated STAT3 phosphorylation in EML4-ALK-positive human CCL185IG cells at 500 nM measured after 24 hrs in presence of pictilisib by Western blot analysis

[27] = target: ALK tyrosine kinase receptor (Homo sapiens) (UniProt Q9UM73); details: 500 nM; remark: listed apart in the source
Description: Inhibition of ALK-mediated STAT3 phosphorylation in EML4-ALK-positive human CCL185IG cells at 500 nM measured after 24 hrs by Western blot analysis

Chain of ALK tyrosine kinase receptor (Homo sapiens) (Q9UM73 19-1620 limits assumed): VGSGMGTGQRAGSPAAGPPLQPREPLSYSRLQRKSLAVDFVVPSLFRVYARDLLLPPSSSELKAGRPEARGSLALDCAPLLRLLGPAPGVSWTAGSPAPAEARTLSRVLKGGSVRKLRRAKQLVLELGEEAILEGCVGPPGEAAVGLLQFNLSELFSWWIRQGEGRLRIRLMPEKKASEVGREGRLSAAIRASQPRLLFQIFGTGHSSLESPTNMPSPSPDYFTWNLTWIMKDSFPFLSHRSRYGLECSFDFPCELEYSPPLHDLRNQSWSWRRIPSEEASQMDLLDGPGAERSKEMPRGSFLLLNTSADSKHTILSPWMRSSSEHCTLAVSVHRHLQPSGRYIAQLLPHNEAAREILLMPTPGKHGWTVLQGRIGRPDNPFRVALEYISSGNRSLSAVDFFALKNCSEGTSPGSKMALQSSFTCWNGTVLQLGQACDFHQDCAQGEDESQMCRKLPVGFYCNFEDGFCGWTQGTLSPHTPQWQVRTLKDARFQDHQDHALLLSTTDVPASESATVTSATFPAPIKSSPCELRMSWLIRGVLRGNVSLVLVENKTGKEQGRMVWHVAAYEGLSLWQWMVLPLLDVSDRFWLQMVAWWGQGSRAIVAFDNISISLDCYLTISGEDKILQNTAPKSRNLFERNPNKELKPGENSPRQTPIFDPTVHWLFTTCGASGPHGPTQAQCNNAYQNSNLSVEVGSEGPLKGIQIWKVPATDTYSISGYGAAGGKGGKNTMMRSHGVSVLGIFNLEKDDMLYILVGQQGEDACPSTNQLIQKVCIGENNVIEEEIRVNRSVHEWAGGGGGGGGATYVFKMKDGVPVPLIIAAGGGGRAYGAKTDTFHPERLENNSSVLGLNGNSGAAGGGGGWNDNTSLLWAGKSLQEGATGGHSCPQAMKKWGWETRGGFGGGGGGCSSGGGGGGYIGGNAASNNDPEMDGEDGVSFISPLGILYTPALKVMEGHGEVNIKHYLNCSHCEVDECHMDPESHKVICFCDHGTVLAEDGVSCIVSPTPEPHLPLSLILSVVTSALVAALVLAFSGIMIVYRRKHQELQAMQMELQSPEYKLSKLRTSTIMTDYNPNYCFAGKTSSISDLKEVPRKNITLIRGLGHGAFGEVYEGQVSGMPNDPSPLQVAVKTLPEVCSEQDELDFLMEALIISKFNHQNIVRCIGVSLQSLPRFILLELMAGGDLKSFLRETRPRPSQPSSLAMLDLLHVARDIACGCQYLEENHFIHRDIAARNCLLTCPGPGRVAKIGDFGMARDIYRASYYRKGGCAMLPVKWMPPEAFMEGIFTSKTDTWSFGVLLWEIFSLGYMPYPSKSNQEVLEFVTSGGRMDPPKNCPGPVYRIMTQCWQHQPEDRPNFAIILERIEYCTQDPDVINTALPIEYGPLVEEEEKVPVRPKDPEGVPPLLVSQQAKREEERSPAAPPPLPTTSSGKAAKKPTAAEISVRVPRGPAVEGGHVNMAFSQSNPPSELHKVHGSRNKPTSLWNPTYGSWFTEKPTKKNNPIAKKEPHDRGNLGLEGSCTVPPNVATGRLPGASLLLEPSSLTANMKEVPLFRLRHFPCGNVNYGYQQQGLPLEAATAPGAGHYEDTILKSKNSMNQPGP

half-life [1] [h] | half-life [2] [h] | half-life [5] [h] | K [6] [min⁻¹] | SMILES | K [3] [h⁻¹] | K [4] [h⁻¹] | GI50 [8] [nM] | GI50 [9] [nM] | D50 [17] [µM] | D50 [18] [µM] | other results
34.7 | 19.3 | 0.633 | 0.018 | Cc1cc(Nc2ncc(Cl)c(Nc3ccccc3S(=O)(=O)C(C)C)n2)c(OC(C)C)cc1C1CCN(C(=O)OC(C)OC(=O)[C@@H](N)CC(=O)n2ncc3c(-c4nc(N5CCOCC5)c5sc(CN6CCN(S(C)(=O)=O)CC6)cc5n4)cccc32)CC1 (some centres not stated) | 0.036 | 0.02 | – | – | – | – | –
– | – | – | – | CS(=O)(=O)N1CCN(Cc2cc3nc(-c4cccc5[nH]ncc45)nc(N4CCOCC4)c3s2)CC1 [PICTILISIB] | – | – | 1180 | 1220 | 1.22 | 1.12 | CI [7]: 0.95; CI [10]: 0.72; CI [11]: 0.55; CI [12]: 0.35; CI [13]: 0.52; CI [14]: 0.37; CI [15]: 0.3; CI [16]: 0.24
– | – | – | – | CC(OC(=O)C[C@H](N)C(=O)n1ncc2cc(Br)ccc21)OC(=O)N1CCC(c2ccccc2)CC1 (some centres not stated) | – | – | – | – | – | – | half-life [19]: 4.64 h; half-life [20]: 0.7 h; half-life [21]: 0.39 h; K [22]: 0.22 h⁻¹; K [23]: 0.84 h⁻¹; K [24]: 1.37 h⁻¹
19.3 | 7.4 | 0.967 | – | Cc1cc(Nc2ncc(Cl)c(Nc3ccccc3S(=O)(=O)C(C)C)n2)c(OC(C)C)cc1C1CCN(C(=O)OC(C)OC(=O)C[C@H](N)C(=O)n2ncc3c(-c4nc(N5CCOCC5)c5sc(CN6CCN(S(C)(=O)=O)CC6)cc5n4)cccc32)CC1 (some centres not stated) | 0.094 | 0.036 | – | – | – | – | K [25]: 0.069 µM/s
12 | 7.6 | 1.15 | 0.01 | Cc1cc(Nc2ncc(Cl)c(Nc3ccccc3S(=O)(=O)C(C)C)n2)c(OC(C)C)cc1C1CCN(C(=O)OC(C)OC(=O)CC(N)CC(=O)n2ncc3c(-c4nc(N5CCOCC5)c5sc(CN6CCN(S(C)(=O)=O)CC6)cc5n4)cccc32)CC1 (configuration not stated) | 0.091 | 0.058 | – | – | – | – | –
– | – | – | – | Cc1cc(Nc2ncc(Cl)c(Nc3ccccc3S(=O)(=O)C(C)C)n2)c(OC(C)C)cc1C1CCNCC1 [CERITINIB] | – | – | 565 | 845 | 0.85 | 0.57 | inhibition [26]: Active; inhibition [27]: Active
